Experiment [1] concerns the target Recombinant wild type LRRK2 protein (Homo sapiens (Human), UniProt Q5S007). Briefly: LRRK2 kinase activity, LanthaScreen TR-FRET assay (wild type). The format is biochemical. Particulars: LRRKtide 400 nM, 25 μM ATP, 60 min; read-out: LRRK2 WT IC50. Summed up: (§1)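 Recombinant human wild-type or G2019S LRRK2 phosphorylated fluorescein-labelled LRRKtide (ERM-based) with ATP and serially diluted compound for 60 min at room temperature.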
In general terms: Time-resolved FRET reads energy transfer from a long-lived donor to a nearby acceptor.

Experiment [2] deals with Recombinant G2019S-LRRK2 protein (Homo sapiens (Human), UniProt Q5S007, G2019S). Briefly: LRRK2 kinase activity, LanthaScreen TR-FRET assay (G2019S). The class given is biochemical. Particulars: LRRKtide 400 nM, 25 μM ATP, 60 min. The method in brief:
as §1

Recombinant wild type LRRK2 protein, sequence (Q5S007 whole entry): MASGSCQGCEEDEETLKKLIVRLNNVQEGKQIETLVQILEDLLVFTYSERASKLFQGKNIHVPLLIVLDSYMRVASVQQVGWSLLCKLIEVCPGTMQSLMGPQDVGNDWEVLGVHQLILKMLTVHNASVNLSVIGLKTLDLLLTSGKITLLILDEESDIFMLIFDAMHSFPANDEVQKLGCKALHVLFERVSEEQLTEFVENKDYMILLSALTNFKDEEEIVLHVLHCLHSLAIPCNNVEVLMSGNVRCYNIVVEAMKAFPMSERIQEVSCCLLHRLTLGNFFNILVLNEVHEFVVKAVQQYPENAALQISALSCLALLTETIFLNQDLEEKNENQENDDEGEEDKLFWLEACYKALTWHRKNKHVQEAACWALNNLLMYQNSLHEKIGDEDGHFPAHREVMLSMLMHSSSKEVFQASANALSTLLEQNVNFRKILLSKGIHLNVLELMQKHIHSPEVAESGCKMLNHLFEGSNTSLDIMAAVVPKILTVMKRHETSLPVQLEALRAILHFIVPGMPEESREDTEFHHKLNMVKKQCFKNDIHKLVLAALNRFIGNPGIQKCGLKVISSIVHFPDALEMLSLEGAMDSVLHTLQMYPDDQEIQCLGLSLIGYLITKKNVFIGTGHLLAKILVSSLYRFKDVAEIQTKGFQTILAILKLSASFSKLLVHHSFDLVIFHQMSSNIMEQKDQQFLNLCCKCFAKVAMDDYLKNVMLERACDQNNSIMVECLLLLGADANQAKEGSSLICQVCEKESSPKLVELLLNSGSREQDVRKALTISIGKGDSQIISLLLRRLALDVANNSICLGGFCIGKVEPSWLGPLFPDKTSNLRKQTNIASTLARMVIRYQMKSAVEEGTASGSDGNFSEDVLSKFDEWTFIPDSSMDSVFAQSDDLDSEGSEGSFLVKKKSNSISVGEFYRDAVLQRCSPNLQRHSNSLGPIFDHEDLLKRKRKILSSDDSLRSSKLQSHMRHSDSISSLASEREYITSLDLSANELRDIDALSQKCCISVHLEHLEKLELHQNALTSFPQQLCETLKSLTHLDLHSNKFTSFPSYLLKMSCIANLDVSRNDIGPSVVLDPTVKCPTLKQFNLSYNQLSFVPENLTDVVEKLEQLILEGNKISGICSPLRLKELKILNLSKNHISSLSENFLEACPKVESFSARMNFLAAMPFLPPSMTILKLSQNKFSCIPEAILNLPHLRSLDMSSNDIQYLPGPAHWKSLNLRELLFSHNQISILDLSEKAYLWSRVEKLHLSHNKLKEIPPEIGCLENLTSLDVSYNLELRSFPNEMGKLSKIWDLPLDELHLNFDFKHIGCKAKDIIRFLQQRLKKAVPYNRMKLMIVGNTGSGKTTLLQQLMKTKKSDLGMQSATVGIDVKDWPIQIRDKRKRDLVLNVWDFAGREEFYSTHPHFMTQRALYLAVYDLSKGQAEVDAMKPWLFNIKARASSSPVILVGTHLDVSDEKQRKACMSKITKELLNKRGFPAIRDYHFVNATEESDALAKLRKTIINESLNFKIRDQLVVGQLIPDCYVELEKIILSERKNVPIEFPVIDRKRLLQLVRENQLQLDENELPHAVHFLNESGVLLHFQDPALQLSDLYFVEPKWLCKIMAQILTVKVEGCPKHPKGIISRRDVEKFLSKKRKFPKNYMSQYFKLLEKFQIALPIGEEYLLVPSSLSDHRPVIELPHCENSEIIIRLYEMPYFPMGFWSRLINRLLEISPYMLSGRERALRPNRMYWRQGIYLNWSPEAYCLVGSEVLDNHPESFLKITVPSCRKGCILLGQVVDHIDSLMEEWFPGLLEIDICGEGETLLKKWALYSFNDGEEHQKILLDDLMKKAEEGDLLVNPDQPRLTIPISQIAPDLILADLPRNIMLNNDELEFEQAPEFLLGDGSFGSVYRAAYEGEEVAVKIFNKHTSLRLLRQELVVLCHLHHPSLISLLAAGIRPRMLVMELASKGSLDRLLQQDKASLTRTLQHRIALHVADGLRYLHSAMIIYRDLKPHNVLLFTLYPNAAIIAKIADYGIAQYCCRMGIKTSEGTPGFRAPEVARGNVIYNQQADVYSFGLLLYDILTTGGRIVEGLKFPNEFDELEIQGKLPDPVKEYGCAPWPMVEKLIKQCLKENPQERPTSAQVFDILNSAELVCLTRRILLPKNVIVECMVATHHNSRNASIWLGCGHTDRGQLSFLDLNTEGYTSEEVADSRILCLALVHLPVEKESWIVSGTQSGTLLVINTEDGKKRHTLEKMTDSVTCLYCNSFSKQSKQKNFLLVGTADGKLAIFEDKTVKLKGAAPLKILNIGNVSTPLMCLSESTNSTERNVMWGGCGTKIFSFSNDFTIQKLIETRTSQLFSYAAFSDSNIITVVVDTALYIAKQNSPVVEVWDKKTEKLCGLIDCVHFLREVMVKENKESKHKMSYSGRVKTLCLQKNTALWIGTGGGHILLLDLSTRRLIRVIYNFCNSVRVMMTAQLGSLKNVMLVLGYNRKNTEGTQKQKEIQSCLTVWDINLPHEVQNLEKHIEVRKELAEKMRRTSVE
Recombinant G2019S-LRRK2 protein, sequence (Q5S007 whole entry G2019S): as the sequence (Q5S007 whole entry) above, with G2019S counted along it

By IC50 is commonly meant the midpoint of a concentration-inhibition curve. Regarding `Cc1cccc(-c2n[nH]c3ccc(NC(=O)c4ncc(C#N)cc4C)cc23)n1` [Example 112, 5-Cyano-3-methyl-N-(3-(6-methylpyridin-2-yl)-1H-indazol-5-yl)picolinamide], the IC50 in experiment [1] and in experiment [2] was 100 to 1000 nM in each case.
On to `C/C=C/c1n[nH]c2ccc(NC(=O)c3ncc(C#N)c(C)c3C)cc12` [Example 245, (E)-5-cyano-3,4-dimethyl-N-(3-(prop-1-en-1-yl)-1H-indazol-5-yl)picolinamide], for which the values for the IC50 in experiment [1] and in experiment [2] were 100 to 1000 nM and under 100 nM, respectively.
On the same counts, the results for `Cc1c(C(=O)Nc2ccc3[nH]nc(-c4cnoc4)c3c2)nc(Cl)c(C#N)c1C` [Example 216, 6-Chloro-5-cyano-N-(3-(isoxazol-4-yl)-1H-indazol-5-yl)-3,4-dimethylpicolinamide] are under 100 nM and under 100 nM.
In the case of `Cc1cc(C#N)cnc1C(=O)Nc1ccc2[nH]nc(-c3ccc(C(F)(F)F)nc3)c2c1` [Example 60, 5-Cyano-3-methyl-N-(3-(6-(trifluoromethyl)pyridin-3-yl)-1H-indazol-5-yl)picolinamide], the IC50 in experiment [1] lay within 1000 to 10000 nM; in experiment [2], 100 to 1000 nM.
The corresponding values for `N#Cc1cnc(C(=O)Nc2ccc3[nH]nc(-c4cnco4)c3c2)c2c1CCC2` [Example 206, 4-Cyano-N-(3-(oxazol-5-yl)-1H-indazol-5-yl)-6,7-dihydro-5H-cyclopenta[c]pyridine-1-carboxamide] are 1000 to 10000 nM and under 100 nM.
Turning to `C=C(C)c1cc(C#N)cnc1C(=O)Nc1ccc2[nH]nc(-c3cnco3)c2c1` [Example 250, 5-Cyano-N-(3-(oxazol-5-yl)-1H-indazol-5-yl)-3-(prop-1-en-2-yl)picolinamide], the IC50 in experiment [1] and in experiment [2] was under 100 nM in each case.
Turning to `COC(C)c1n[nH]c2ccc(NC(=O)c3ncc(C#N)c(C)c3C)cc12` (centres unmarked) [Example 269, 5-Cyano-N-(3-(1-methoxyethyl)-1H-indazol-5-yl)-3,4-dimethylpicolinamide], the IC50 in experiment [1] was over 10000 nM; in experiment [2], 1000 to 10000 nM.
